Experimental data taken from paper PMC6593727 (Clinical Pharmacology in Drug Development, 2019).
Where two headings read alike, the source gives them in different places.

How the values were obtained:
CYP3A4 [1] = target: T1, CYP3A4 (Homo sapiens, UniProt P08684)
CYP3A4 [2] = target: T1, CYP3A4; assay: In vitro CYP inhibition studies in human liver microsomes using probe substrates; type: biochemical; details: for R value (FDA): R = 1 + (total Cmax/Ki); for R value (EMA): R = unbound Cmax/Ki
CYP2C8 = target: T2, CYP2C8 (Homo sapiens, UniProt P10632); assay: as above; type: biochemical; details: for R value (FDA): R = 1 + (total Cmax/Ki); for R value (EMA): R = unbound Cmax/Ki
T2 sequence (P10632 1-490): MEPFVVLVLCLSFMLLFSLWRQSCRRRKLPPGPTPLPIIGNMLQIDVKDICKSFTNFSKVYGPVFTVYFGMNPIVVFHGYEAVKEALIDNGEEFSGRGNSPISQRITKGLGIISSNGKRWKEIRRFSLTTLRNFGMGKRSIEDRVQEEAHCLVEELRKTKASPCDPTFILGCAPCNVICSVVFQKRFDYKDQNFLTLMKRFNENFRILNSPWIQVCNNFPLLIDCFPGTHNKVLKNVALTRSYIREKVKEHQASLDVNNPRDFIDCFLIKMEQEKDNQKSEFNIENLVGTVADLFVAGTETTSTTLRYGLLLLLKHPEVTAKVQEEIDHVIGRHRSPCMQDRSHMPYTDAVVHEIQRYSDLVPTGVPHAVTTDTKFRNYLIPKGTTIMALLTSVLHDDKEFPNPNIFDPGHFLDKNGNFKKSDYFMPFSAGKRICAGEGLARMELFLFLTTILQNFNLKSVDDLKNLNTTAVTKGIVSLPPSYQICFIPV

[3] = Fraction of unbound ASP8477 in humans; type: in vitro ADME, human; details: independent of the clinical concentration range
CYP2D6 [4] = target: T3, CYP2D6 (Homo sapiens, UniProt P10635)
CYP2C19 [5] = target: T4, CYP2C19 (Homo sapiens, UniProt P33261)
CYP2D6 [6] = target: T3, CYP2D6; assay: In vitro CYP inhibition studies in human liver microsomes using probe substrates; type: biochemical; details: for R value (FDA): R = 1 + (total Cmax/Ki); for R value (EMA): R = unbound Cmax/Ki
[7] = ref clinical studies, cited from earlier work
CYP2C19 [8] = target: T4, CYP2C19; assay: In vitro CYP inhibition studies in human liver microsomes using probe substrates; type: biochemical; details: for R value (FDA): R = 1 + (total Cmax/Ki); for R value (EMA): R = unbound Cmax/Ki
CYP2C9 [9] = target: T5, CYP2C9 (Homo sapiens, UniProt P11712); assay: as above; type: biochemical; details: for R value (FDA): R = 1 + (total Cmax/Ki); for R value (EMA): R = unbound Cmax/Ki
CYP2C9 [10] = target: T5, CYP2C9; assay: Inje cocktail DDI study: losartan and EXP‐3174 PK, assessment of CYP2C9 activity
CYP enzymes = assay: Induction of CYP enzymes in vitro; type: in vitro ADME
healthy female subjects = assay: Safety and tolerability: adverse events; type: in vivo, human
[11] = ASP8477 steady‐state plasma PK in the cocktail study; type: in vivo, human; details: for Ctrough: mean ± SD
[12] = female, human, plasma, oral, 20 mg
[13] = female, human, plasma, oral, 60 mg
[14] = female, human, plasma, oral, 100 mg

T5 sequence (P11712 whole entry): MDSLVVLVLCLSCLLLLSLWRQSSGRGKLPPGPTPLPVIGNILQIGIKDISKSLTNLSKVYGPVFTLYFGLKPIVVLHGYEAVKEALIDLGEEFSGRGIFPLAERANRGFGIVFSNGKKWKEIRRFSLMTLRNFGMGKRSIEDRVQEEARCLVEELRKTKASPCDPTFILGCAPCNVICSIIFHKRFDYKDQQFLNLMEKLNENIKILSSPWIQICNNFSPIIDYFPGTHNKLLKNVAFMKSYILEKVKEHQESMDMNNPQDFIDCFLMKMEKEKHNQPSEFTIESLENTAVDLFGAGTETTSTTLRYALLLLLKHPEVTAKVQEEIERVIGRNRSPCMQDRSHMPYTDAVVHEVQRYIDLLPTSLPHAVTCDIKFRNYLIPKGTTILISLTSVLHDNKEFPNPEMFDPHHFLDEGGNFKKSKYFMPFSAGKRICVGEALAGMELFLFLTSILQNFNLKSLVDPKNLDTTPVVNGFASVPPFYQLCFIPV
T1 sequence (P08684 whole entry): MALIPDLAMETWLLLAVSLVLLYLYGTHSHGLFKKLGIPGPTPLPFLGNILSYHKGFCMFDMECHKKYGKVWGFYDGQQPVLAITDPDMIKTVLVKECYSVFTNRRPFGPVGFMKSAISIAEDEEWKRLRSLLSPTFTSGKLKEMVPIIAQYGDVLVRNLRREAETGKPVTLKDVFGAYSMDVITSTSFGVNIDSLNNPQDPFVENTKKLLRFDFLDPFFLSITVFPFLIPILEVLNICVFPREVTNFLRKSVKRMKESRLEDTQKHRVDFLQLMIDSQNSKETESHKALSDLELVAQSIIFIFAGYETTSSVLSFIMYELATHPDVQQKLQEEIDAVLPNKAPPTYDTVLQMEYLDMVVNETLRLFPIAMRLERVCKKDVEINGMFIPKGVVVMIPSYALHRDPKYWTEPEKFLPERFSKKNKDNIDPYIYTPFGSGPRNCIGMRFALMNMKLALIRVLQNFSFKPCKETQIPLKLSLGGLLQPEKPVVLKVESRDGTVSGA
T3 sequence (P10635 whole entry): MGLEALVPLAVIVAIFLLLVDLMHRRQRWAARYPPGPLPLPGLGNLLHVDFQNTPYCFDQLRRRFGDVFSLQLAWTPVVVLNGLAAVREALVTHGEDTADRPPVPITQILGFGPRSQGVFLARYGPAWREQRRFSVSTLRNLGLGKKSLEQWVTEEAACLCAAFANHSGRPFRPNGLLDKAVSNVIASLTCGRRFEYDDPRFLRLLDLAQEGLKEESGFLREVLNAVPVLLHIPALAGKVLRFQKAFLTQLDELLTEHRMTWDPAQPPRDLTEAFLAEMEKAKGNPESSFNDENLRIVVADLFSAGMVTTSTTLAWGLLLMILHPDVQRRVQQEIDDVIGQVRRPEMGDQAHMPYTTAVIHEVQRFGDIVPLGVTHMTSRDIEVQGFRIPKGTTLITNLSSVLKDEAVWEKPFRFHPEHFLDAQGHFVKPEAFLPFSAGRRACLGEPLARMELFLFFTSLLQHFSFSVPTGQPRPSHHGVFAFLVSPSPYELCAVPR
T4 sequence (P33261 whole entry): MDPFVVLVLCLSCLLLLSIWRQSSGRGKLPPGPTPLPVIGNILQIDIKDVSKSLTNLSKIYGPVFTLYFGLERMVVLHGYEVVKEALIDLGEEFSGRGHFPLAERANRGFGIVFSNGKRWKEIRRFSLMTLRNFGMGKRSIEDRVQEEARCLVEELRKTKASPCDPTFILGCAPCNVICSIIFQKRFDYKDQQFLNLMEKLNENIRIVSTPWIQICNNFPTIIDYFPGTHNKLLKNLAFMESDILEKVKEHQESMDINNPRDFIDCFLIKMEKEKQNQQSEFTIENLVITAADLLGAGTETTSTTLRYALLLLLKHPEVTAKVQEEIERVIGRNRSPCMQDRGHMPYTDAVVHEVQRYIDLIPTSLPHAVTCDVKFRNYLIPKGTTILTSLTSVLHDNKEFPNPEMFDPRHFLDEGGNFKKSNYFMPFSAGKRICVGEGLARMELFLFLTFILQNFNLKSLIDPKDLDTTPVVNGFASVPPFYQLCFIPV

O=C(Nc1ccccc1)C1CCN(C(=O)Oc2cccnc2)CC1 [ASP8477, 3‐pyridyl 4‐(phenylcarbamoyl)piperidine‐1‐carboxylate]
in vivo CYP inhibition class (FDA guidance, AUC of probe substrate) (CYP3A4 [1]; 60 mg dose level): weak (1.25‐ to <2‐fold)
in vivo CYP inhibition class (FDA guidance, AUC of probe substrate) (CYP3A4 [1]; 100 mg dose level): weak (1.25‐ to <2‐fold)
overall in vivo inhibitor class (CYP3A4 [1]; doses from 20 to 100 mg): weak (1.25‐ to <2‐fold)
Ki (CYP3A4 [2]): 18 µM
R value (FDA) (CYP3A4 [2]; ASP8477 20 mg QD): 1.062
R value (EMA) (CYP3A4 [2]; ASP8477 20 mg QD): 0.009
R value (FDA) (CYP3A4 [2]; ASP8477 60 mg QD): 1.321
R value (EMA) (CYP3A4 [2]; ASP8477 60 mg QD): 0.05
Ki (CYP2C8): 15 µM
R value (FDA) (CYP2C8; ASP8477 20 mg QD): 1.074
R value (EMA) (CYP2C8; ASP8477 20 mg QD): 0.011
R value (FDA) (CYP2C8; ASP8477 60 mg QD): 1.385
R value (EMA) (CYP2C8; ASP8477 60 mg QD): 0.06
fraction of unbound ASP8477 [3]: 15%
in vivo CYP inhibition class (FDA guidance, AUC of probe substrate) (CYP2D6 [4]; 20 mg dose level): weak (1.25‐ to <2‐fold)
in vivo CYP inhibition class (FDA guidance, AUC of probe substrate) (CYP2D6 [4]; 60 mg dose level): moderate (2‐ to <5‐fold)
in vivo CYP inhibition class (FDA guidance, AUC of probe substrate) (CYP2D6 [4]; 100 mg dose level): strong (≥5‐fold)
overall in vivo inhibitor class (CYP2D6 [4]; doses from 20 to 100 mg): weak to strong
in vivo CYP inhibition class (FDA guidance, AUC of probe substrate) (CYP2C19 [5]; 20 mg dose level): moderate (2‐ to <5‐fold)
in vivo CYP inhibition class (FDA guidance, AUC of probe substrate) (CYP2C19 [5]; 60 mg dose level): moderate (2‐ to <5‐fold)
in vivo CYP inhibition class (FDA guidance, AUC of probe substrate) (CYP2C19 [5]; 100 mg dose level): strong (≥5‐fold)
overall in vivo inhibitor class (CYP2C19 [5]; doses from 20 to 100 mg): moderate to strong
Ki (CYP2D6 [6]): 9.8 µM
R value (FDA) (CYP2D6 [6]; ASP8477 20 mg QD): 1.114
R value (EMA) (CYP2D6 [6]; ASP8477 20 mg QD): 0.017
R value (FDA) (CYP2D6 [6]; ASP8477 60 mg QD): 1.590
R value (EMA) (CYP2D6 [6]; ASP8477 60 mg QD): 0.09
steady state achieved (mean trough concentration‐time profiles) ([7]; 20 mg once daily): 1 days
steady state achieved (mean trough concentration‐time profiles) ([7]; 60 mg once daily): 3 days
steady state achieved (mean trough concentration‐time profiles) ([7]; 100 mg once daily): 10 days
dose excreted in urine as unchanged drug [7]: Approximately 1%
Ki (CYP2C19 [8]): 1 µM
R value (FDA) (CYP2C19 [8]; ASP8477 20 mg QD): 2.116
R value (EMA) (CYP2C19 [8]; ASP8477 20 mg QD): 0.167
R value (FDA) (CYP2C19 [8]; ASP8477 60 mg QD): 6.781
R value (EMA) (CYP2C19 [8]; ASP8477 60 mg QD): 0.87
Ki (CYP2C9 [9]): 8 µM
R value (FDA) (CYP2C9 [9]; ASP8477 20 mg QD): 1.140
R value (EMA) (CYP2C9 [9]; ASP8477 20 mg QD): 0.021
R value (FDA) (CYP2C9 [9]; ASP8477 60 mg QD): 1.723
R value (EMA) (CYP2C9 [9]; ASP8477 60 mg QD): 0.11
in vivo CYP inhibition class (FDA guidance, AUC of probe substrate) (CYP2C9 [10]; 20 mg dose level): no effect
in vivo CYP inhibition class (FDA guidance, AUC of probe substrate) (CYP2C9 [10]; 60 mg dose level): weak (1.25‐ to <2‐fold)
in vivo CYP inhibition class (FDA guidance, AUC of probe substrate) (CYP2C9 [10]; 100 mg dose level): weak (1.25‐ to <2‐fold)
overall in vivo inhibitor class (CYP2C9 [10]; doses from 20 to 100 mg): weak (1.25‐ to <2‐fold)
effect on the induction of CYP enzymes (CYP enzymes): No clinically relevant effect
tolerability (healthy female subjects; ASP8477 in conjunction with cocktail probes, healthy female subjects): generally well tolerated
fatigue of moderate intensity (most frequent moderate AE) (healthy female subjects; all dose levels): 5 subjects
discontinuation due to an AE (emotional lability, moderate) (healthy female subjects; day 15, at the 60 mg level): 1 subject
AEs considered possibly or probably related to study drug (healthy female subjects; following 20 mg ASP8477): 11 subjects
AEs considered possibly or probably related to study drug (healthy female subjects; following 60 mg ASP8477): 11 subjects
AEs considered possibly or probably related to study drug (healthy female subjects; following 100 mg ASP8477): 13 subjects
serious AEs or deaths (healthy female subjects; whole study): No serious AEs or deaths
dose proportionality of Cmax and AUCtau ([11]; 20, 60, 100 mg once daily): more than dose‐proportional
Ctrough ([11]; Day 14, 60 mg ASP8477 qd): 91 ± 110 ng/mL
Ctrough ([11]; Day 23, 100 mg ASP8477 qd): 740 ± 640 ng/mL
AUC [11, 12]: 1600 ± 710 ng·h/mL
Cmax [11, 12]: 400 ± 120 ng/mL
Tmax [11, 12]: 1 h
Cmax [11, 13]: 2000 ± 490 ng/mL
Tmax [11, 13]: 2 h
Cmax [11, 14]: 4200 ± 1200 ng/mL
Tmax [11, 14]: 2 h
